Assay results as given in ChEMBL document CHEMBL3244338, “Antineoplastic agents. Structure-activity relationship study of bis(substituted aminoalkylamino)anthraquinones” (J Med Chem, 1978).
Calls of active or inactive are those of the source. The calls are words filed in the database; no cut-off is given here.

Experiments:
P388 [1] = assay: Antitumor activity against mouse P388 cells allografted in BDF1 mouse assessed as mouse survival at 3.13 mg/kg administered 24 hrs post challenge relative to control; assay type: functional, organism-based; parameters: dose 3.13 mg/kg
P388 [2] = assay: Antitumor activity against mouse P388 cells allografted in BDF1 mouse assessed as increase in survival time at 25 mg/kg administered 24 hrs post challenge relative to control; assay type: functional
P388 [3] = assay: Antitumor activity against mouse P388 cells allografted in BDF1 mouse assessed as increase in survival time at 6.25 mg/kg administered 24 hrs post challenge relative to control; assay type: functional
Mus musculus [4] = assay: Toxicity in mouse P388 cells allografted BDF1 mouse assessed as body weight difference at 12.5 mg/kg administered 24 hrs post challenge relative to control; assay type: organism-based; parameters: dose 12.5 mg/kg; settings: in vivo
P388 [5] = assay: Antitumor activity against mouse P388 cells allografted in BDF1 mouse assessed as increase in survival time at 12.5 mg/kg administered 24 hrs post challenge relative to control; assay type: functional
P388 [6] = assay: Antitumor activity against mouse P388 cells allografted in BDF1 mouse assessed as increase in survival time at 3.13 mg/kg administered 24 hrs post challenge relative to control; assay type: functional
Mus musculus [7] = assay: Toxicity in mouse P388 cells allografted BDF1 mouse assessed as body weight difference at 6.25 mg/kg administered 24 hrs post challenge relative to control; assay type: organism-based; parameters: dose 6.25 mg/kg; settings: in vivo
Mus musculus [8] = assay: Toxicity in mouse P388 cells allografted BDF1 mouse assessed as body weight difference at 25 mg/kg administered 24 hrs post challenge relative to control; assay type: organism-based; parameters: dose 25 mg/kg; settings: in vivo
P388 [9] = assay: Antitumor activity against mouse P388 cells allografted in BDF1 mouse assessed as mouse survival at 6.25 mg/kg administered 24 hrs post challenge relative to control; assay type: functional, organism-based; parameters: dose 6.25 mg/kg
Mus musculus [10] = assay: Toxicity in mouse P388 cells allografted BDF1 mouse assessed as body weight difference at 3.13 mg/kg administered 24 hrs post challenge relative to control; assay type: organism-based; parameters: dose 3.13 mg/kg; settings: in vivo
P388 [11] = assay: Antitumor activity against mouse P388 cells allografted in BDF1 mouse assessed as mouse survival at 50 mg/kg administered 24 hrs post challenge relative to control; assay type: functional, organism-based; parameters: dose 50 mg/kg
P388 [12] = assay: Antitumor activity against mouse P388 cells allografted in BDF1 mouse assessed as increase in survival time at 100 mg/kg administered 24 hrs post challenge relative to control; assay type: functional
P388 [13] = assay: Antitumor activity against mouse P388 cells allografted in BDF1 mouse assessed as increase in survival time at 50 mg/kg administered 24 hrs post challenge relative to control; assay type: functional
P388 [14] = assay: Antitumor activity against mouse P388 cells allografted in BDF1 mouse assessed as mouse survival at 25 mg/kg administered 24 hrs post challenge relative to control; assay type: functional, organism-based; parameters: dose 25 mg/kg
Mus musculus [15] = assay: Toxicity in mouse P388 cells allografted BDF1 mouse assessed as body weight difference at 100 mg/kg administered 24 hrs post challenge relative to control; assay type: organism-based; parameters: dose 100 mg/kg; settings: in vivo
Mus musculus [16] = assay: Toxicity in mouse P388 cells allografted BDF1 mouse assessed as body weight difference at 50 mg/kg administered 24 hrs post challenge relative to control; assay type: organism-based; parameters: dose 50 mg/kg; settings: in vivo
P388 [17] = assay: Antitumor activity against mouse P388 cells allografted in BDF1 mouse assessed as mouse survival at 12.5 mg/kg administered 24 hrs post challenge relative to control; assay type: functional, organism-based; parameters: dose 12.5 mg/kg
P388 [18] = assay: Antitumor activity against mouse P388 cells allografted in BDF1 mouse assessed as mouse survival at 100 mg/kg administered 24 hrs post challenge relative to control; assay type: functional, organism-based; parameters: dose 100 mg/kg

## CCNCCNc1ccc(NCCNCC)c2c1C(=O)c1ccccc1C2=O
P388 [1]
  Activity: Active
P388 [2]
  T/C: 132%
P388 [3]
  T/C: 149%
Mus musculus [4]
  Activity: -2.8 g
P388 [5]
  T/C: 168%
P388 [6]
  T/C: 142%
Mus musculus [7]
  Activity: -2.2 g
Mus musculus [8]
  Activity: -4.8 g
P388 [9]
  Activity: Active
Mus musculus [10]
  Activity: -2.3 g

## O=C1c2ccccc2C(=O)c2c(NCCNCCNCCO)ccc(NCCNCCNCCO)c21
P388 [2]
  T/C: 110%
P388 [11]
  Activity: Active
P388 [12]
  T/C: 120%
Mus musculus [8]
  Activity: -1.6 g
P388 [13]
  T/C: 112%
P388 [14]
  Activity: Active
Mus musculus [15]
  Activity: -2.6 g
Mus musculus [16]
  Activity: -1.3 g

## CNCCNc1ccc(NCCNC)c2c1C(=O)c1ccccc1C2=O
Mus musculus [4]
  Activity: -1.9 g
P388 [5]
  T/C: 200%
P388 [17]
  Activity: Active

## O=C1c2ccccc2C(=O)c2c(NCCCCCO)ccc(NCCCCCO)c21
P388 [2]
  T/C: 88%
P388 [11]
  Activity: Active
P388 [12]
  T/C: 88%
Mus musculus [8]
  Activity: -1.4 g
P388 [13]
  T/C: 78%
P388 [14]
  Activity: Active
Mus musculus [15]
  Activity: -4 g
P388 [18]
  Activity: Active
Mus musculus [16]
  Activity: -1.5 g

## CCCNCCNc1ccc(NCCNCCC)c2c1C(=O)c1ccccc1C2=O
P388 [2]
  T/C: 118%
P388 [11]
  Activity: Active
P388 [12]
  T/C: 124%
Mus musculus [8]
  Activity: -0.8 g
P388 [13]
  T/C: 125%
P388 [14]
  Activity: Active
Mus musculus [15]
  Activity: -2.6 g
P388 [18]
  Activity: Active
Mus musculus [16]
  Activity: -1.7 g

## O=C1c2ccccc2C(=O)c2c(NCCN3CCCCC3)ccc(NCCN3CCCCC3)c21
P388 [2]
  T/C: 104%
P388 [11]
  Activity: Active
P388 [12]
  T/C: 128%
Mus musculus [8]
  Activity: -3.6 g
P388 [13]
  T/C: 110%
P388 [14]
  Activity: Active
Mus musculus [15]
  Activity: -4.5 g
P388 [18]
  Activity: Active
Mus musculus [16]
  Activity: -2.9 g

## O=C1c2ccccc2C(=O)c2c3c(cc(NCCNCCO)c21)N(CCO)CCN3
P388 [2]
  T/C: 155%
P388 [12]
  T/C: 101%
Mus musculus [8]
  Activity: -3.2 g
P388 [13]
  T/C: 163%
P388 [14]
  Activity: Active
Mus musculus [15]
  Activity: -3.8 g
Mus musculus [16]
  Activity: -3.5 g

## O=C1c2ccccc2C(=O)c2c(NCCCNCCO)ccc(NCCCNCCO)c21
P388 [2]
  T/C: 130%
P388 [11]
  Activity: Active
P388 [3]
  T/C: 101%
Mus musculus [4]
  Activity: -1.4 g
P388 [5]
  T/C: 117%
Mus musculus [7]
  Activity: 0.9 g
P388 [12]
  T/C: 98%
P388 [17]
  Activity: Active
Mus musculus [8]
  Activity: -2.1 g
P388 [9]
  Activity: Active
P388 [13]
  T/C: 133%
Mus musculus [15]
  Activity: -2.6 g
Mus musculus [16]
  Activity: -2.1 g

## O=C1c2ccccc2C(=O)c2c(NCCN3CCNCC3)ccc(NCCN3CCNCC3)c21
P388 [2]
  T/C: 137%
P388 [3]
  T/C: 125%
Mus musculus [4]
  Activity: -1.1 g
P388 [5]
  T/C: 117%
Mus musculus [7]
  Activity: -0.4 g
P388 [17]
  Activity: Active
Mus musculus [8]
  Activity: -1 g
P388 [9]
  Activity: Active
P388 [13]
  T/C: 134%
P388 [14]
  Activity: Active
Mus musculus [16]
  Activity: -2.7 g

## O=C1c2ccccc2C(=O)c2c(NCCSCCO)ccc(NCCSCCO)c21
P388 [2]
  T/C: 95%
P388 [11]
  Activity: Active
P388 [12]
  T/C: 94%
Mus musculus [8]
  Activity: -1.6 g
P388 [13]
  T/C: 86%
P388 [14]
  Activity: Active
Mus musculus [15]
  Activity: -2.2 g
P388 [18]
  Activity: Active
Mus musculus [16]
  Activity: -1.4 g
